Data: patent US20140058103A1, “Inhibitors of PI3K-Delta and Methods of Their Use and Manufacture” (Exelixis, Inc., priority 2010, published 2014)
pIC50: −log10 of the molar value.

Molecular target: PI3K delta (Homo sapiens, UniProt O00329)
Test: Luciferase-coupled chemiluminescence kinase assay (ATP consumption, KinaseGlo)
Assay type: biochemical
How it was run: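 Compound, kinase and ATP (≤ KM) reacted 2 h at ambient temperature, then remaining ATP quantified with luciferase-luciferin (KinaseGlo) luminescence as percent consumed.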

Chain of PI3K delta (O00329 whole entry): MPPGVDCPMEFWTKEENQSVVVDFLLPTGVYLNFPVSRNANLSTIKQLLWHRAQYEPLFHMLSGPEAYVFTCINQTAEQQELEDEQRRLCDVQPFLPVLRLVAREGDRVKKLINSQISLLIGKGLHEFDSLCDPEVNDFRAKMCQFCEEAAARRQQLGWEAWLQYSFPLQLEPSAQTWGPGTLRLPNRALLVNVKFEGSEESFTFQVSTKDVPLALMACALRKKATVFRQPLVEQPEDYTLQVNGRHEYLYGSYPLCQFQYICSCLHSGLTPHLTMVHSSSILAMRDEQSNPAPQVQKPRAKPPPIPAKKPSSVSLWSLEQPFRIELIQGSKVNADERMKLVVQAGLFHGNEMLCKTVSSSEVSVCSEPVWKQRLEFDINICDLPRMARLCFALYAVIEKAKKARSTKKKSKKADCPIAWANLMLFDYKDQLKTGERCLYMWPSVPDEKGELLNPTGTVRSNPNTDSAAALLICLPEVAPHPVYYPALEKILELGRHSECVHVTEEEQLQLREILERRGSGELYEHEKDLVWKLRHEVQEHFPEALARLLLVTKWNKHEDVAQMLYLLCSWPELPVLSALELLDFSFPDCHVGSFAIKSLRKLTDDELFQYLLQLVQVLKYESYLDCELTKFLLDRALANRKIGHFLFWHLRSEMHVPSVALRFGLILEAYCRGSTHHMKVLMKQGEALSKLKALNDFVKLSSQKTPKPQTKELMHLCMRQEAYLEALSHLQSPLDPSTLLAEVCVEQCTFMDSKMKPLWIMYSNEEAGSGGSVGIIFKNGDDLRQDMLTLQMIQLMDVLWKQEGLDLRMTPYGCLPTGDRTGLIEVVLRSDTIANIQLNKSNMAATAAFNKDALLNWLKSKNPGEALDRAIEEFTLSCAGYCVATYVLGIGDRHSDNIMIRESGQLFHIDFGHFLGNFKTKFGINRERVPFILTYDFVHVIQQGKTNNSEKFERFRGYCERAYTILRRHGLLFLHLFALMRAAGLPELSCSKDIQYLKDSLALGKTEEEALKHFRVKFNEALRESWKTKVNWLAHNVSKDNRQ
Chain of PI3K delta (P27986 whole entry partner): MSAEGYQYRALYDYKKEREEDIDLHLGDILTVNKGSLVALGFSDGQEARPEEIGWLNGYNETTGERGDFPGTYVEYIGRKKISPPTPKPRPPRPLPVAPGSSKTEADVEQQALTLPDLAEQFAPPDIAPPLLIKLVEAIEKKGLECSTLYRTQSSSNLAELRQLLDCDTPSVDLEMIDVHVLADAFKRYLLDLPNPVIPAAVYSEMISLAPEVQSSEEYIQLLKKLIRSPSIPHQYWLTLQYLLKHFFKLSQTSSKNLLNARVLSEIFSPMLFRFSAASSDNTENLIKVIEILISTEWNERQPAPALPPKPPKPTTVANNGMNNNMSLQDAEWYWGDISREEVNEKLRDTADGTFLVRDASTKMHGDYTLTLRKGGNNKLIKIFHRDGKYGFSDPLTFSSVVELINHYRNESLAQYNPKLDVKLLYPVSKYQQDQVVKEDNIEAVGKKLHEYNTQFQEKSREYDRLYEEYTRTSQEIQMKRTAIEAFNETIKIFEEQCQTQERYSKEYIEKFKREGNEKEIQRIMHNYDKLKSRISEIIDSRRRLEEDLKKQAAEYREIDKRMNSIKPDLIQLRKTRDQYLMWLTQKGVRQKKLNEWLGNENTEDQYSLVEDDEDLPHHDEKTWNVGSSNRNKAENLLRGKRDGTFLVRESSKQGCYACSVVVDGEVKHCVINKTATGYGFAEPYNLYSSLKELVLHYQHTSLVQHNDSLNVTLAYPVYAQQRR

Structure (SMILES) | pIC50
CCn1c(C(=O)NCC(F)(F)F)nc2c(N3CCC(n4c(=O)[nH]c5ncccc54)CC3)ncnc21 [Compound 318, 9-ethyl-6-[4-(2-oxo-2,3-dihydro-1H-imidazo[4,5-b]pyridin-1-yl)piperidin-1-yl]-N-(2,2,2-trifluoroethyl)-9H-purine-8-carboxamide] | > 7.30
Cn1c(-c2cn[nH]c2C2CC2)nc2c(N3CCC(n4c(=O)[nH]c5ccccc54)CC3)ncnc21 [Compound 287, 1-{1-[8-(5-cyclopropyl-1H-pyrazol-4-yl)-9-methyl-9H-purin-6-yl]piperidin-4-yl}-1,3-dihydro-2H-benzimidazol-2-one] | > 7.30
CCn1c(-c2ccc(C(F)(F)F)nc2)nc2c(N3CCC4(CC3)C(=O)Nc3ccccc34)ncnc21 [Compound 324, 1′-{9-ethyl-8-[6-(trifluoromethyl)pyridin-3-yl]-9H-purin-6-yl}spiro[indole-3,4′-piperidin]-2(1H)-one] | > 7.30
Cn1c(C(=O)NCC2CCCCO2)nc2c(N3CCC4(CC3)C(=O)Nc3ccccc34)ncnc21 (centres unmarked) [Compound 82, 9-methyl-6-(2-oxo-1,2-dihydro-1′H-spiro[indole-3,4′-piperidin]-1′-yl)-N-(tetrahydro-2H-pyran-2-ylmethyl)-9H-purine-8-carboxamide] | 5.82 to 6.30
Cn1c(C(=O)NC2CC2)nc2c(N3CCC(n4c(=O)[nH]c5ccccc54)CC3)ncnc21 [Compound 43, N-cyclopropyl-9-methyl-6-[4-(2-oxo-2,3-dihydro-1H-benzimidazol-1-yl)piperidin-1-yl]-9H-purine-8-carboxamide] | 6.60 to 7.30
Cn1cc(-c2nc3c(N4CCN(c5ccccc5S(C)(=O)=O)CC4)ncnc3n2C)cn1 [Compound 350, 9-methyl-8-(1-methyl-1H-pyrazol-4-yl)-6-{4-[2-(methylsulfonyl)phenyl]piper-azin-1-yl}-9H-purine] | 5.82 to 6.30
Cn1c(-n2ccnc2)nc2c(N3CCC(n4c(=O)[nH]c5ccccc54)CC3)ncnc21 [Compound 124, 1-{1-[8-(1H-Imidazol-1-yl)-9-methyl-9H-purin-6-yl]piperidin-4-yl}-1,3-dihydro-2H-benzimidazol-2-one] | 6.60 to 7.30
Cn1c(-c2ccncc2)nc2c(N3CCC(n4c(=O)[nH]c5ccccc54)CC3)ncnc21 [Compound 266, 1-[1-(9-methyl-8-pyridin-4-yl-9H-purin-6-yl)piperidin-4-yl]-1,3-dihydro-2H-benzimidazol-2-one] | 6.30 to 6.60
Cn1c(C(=O)NCC2CC2)nc2c(N3CCC(n4c(C(F)(F)F)nc5ccccc54)CC3)ncnc21 [Compound 101, N-(cyclopropylmethyl)-9-methyl-6-{4-[2-(trifluoromethyl)-1H-benzimidazol-1-yl]piperidin-1-yl}-9H-purine-8-carboxamide] | 6.30 to 6.60
CCn1cc(-c2nc3c(N4CCN(S(=O)(=O)c5ccccc5)CC4)ncnc3n2C)cn1 [Compound 367, 8-(1-ethyl-1H-pyrazol-4-yl)-9-methyl-6-[4-(phenylsulfonyl)piperazin-1-yl]-9H-purine] | 6.60 to 7.30
CNc1ncc(-c2nc3c(N4CCC(n5c(=O)[nH]c6ccccc65)CC4)ncnc3n2C)cn1 [Compound 309, 1-(1-{9-methyl-8-[2-(methylamino)pyrimidin-5-yl]-9H-purin-6-yl}piperidin-4-yl)-1,3-dihydro-2H-benzimidazol-2-one] | > 7.30
Cn1c(C(=O)NCC2CC2)nc2c(N3CCC(N4c5ccccc5NS4(=O)=O)CC3)ncnc21 [Compound 133, N-(cyclopropylmethyl)-6-[4-(2,2-dioxido-2,1,3-benzothiadiazol-1(3H)-yl)piperidin-1-yl]-9-methyl-9H-purine-8-carboxamide] | 6.60 to 7.30
Cn1c(C(F)(F)F)nc2c(N3CCC(n4c(=O)[nH]c5ccccc54)CC3)ncnc21 [Compound 134, 1-{1-[9-Methyl-8-(trifluoromethyl)-9H-purin-6-yl]piperidin-4-yl}-1,3-dihydro-2H-benzimidazol-2-one] | 6.30 to 6.60
CN(C)CCN1C(=O)C2(CCN(c3ncnc4c3nc(C(=O)NCC3CC3)n4C)CC2)c2ccccc21 [Compound 397, N-(cyclopropylmethyl)-6-{1-[2-(dimethylamino)ethyl]-2-oxo-1,2-dihydro-1′H-spiro[indole-3,4′-piperidin]-1′-yl}-9-methyl-9H-purine-8-carboxamide] | 5.82 to 6.30
CCn1c(C(=O)NCc2nnc(C)o2)nc2c(N3CCC4(CC3)C(=O)Nc3ccccc34)ncnc21 [Compound 207, 9-ethyl-N-[(5-methyl-1,3,4-oxadiazol-2-yl)methyl]-6-(2-oxo-1,2-dihydro-1′H-spiro[indole-3,4′-piperidin]-1′-yl)-9H-purine-8-carboxamide] | 6.30 to 6.60
Cn1c(C(=O)NCc2ccc3c(c2)OCO3)nc2c(N3CCC(n4c(=O)[nH]c5ccccc54)CC3)ncnc21 [Compound 50, N-(1,3-benzodioxol-5-ylmethyl)-9-methyl-6-[4-(2-oxo-2,3-dihydro-1H-benzimidazol-1-yl)piperidin-1-yl]-9H-purine-8-carboxamide] | 6.30 to 6.60
CCNC(=O)c1nc2c(N3CCC(n4c(=O)[nH]c5ccccc54)CC3)ncnc2n1C [Compound 62, N-ethyl-9-methyl-6-[4-(2-oxo-2,3-dihydro-1H-benzimidazol-1-yl)piperidin-1-yl]-9H-purine-8-carboxamide] | 6.60 to 7.30
Cn1c(C(=O)NCC2CC2)nc2c(N3CCCC(n4c(=O)[nH]c5ccccc54)C3)ncnc21 (centres unmarked) [Compound 256, N-(cyclopropylmethyl)-9-methyl-6-[3-(2-oxo-2,3-dihydro-1H-benzimidazol-1-yl)piperidin-1-yl]-9H-purine-8-carboxamide] | 6.30 to 6.60
CCn1c(C(=O)N2CC(F)(F)C2)nc2c(N3CCC4(CC3)C(=O)Nc3ccccc34)ncnc21 [Compound 216, 1′-{8-[(3,3-difluoroazetidin-1-yl)carbonyl]-9-ethyl-9H-purin-6-yl}spiro[indole-3,4′-piperidin]-2(1H)-one] | > 7.30
CCn1c(C(=O)N[C@H]2CC[C@H](O)CC2)nc2c(N3CCC(n4c(=O)[nH]c5ncccc54)CC3)ncnc21 [Compound 328, 9-ethyl-N-(trans-4-hydroxycyclohexyl)-6-[4-(2-oxo-2,3-dihydro-1H-imidazo[4,5-b]pyridin-1-yl)piperidin-1-yl]-9H-purine-8-carboxamide] | > 7.30
